The values that follow are results of earlier work, collected in patent US20230218541A1, “Enhanced Moisturizing Lotion Compositions” (priority 2019, published 2023).

The data set has as its system coronaviruses, including SARS-CoV-2, SARS-CoV, MERS-CoV, and HCoVs. Particulars: 62% to 71% ethanol, 0.5% hydrogen peroxide or 0.1% sodium hypochlorite.
With `CCO` [ethanol], the “Time to efficient inactivation of coronaviruses on contact with surface disinfectant” value (“Time to efficient inactivation” below) is recorded as “one”.

On to `OO` [hydrogen peroxide], for which the “Time to efficient inactivation” value is “one”.

On to `OCl` [sodium hypochlorite], for which the “Time to efficient inactivation” value is “one”.
